For 27 compounds, IC50 results are on record in US20200361895A1, “NOVEL SULFONAMIDE CARBOXAMIDE COMPOUNDS” (Inflazome Limited, priority 2017, published 2020).

The structures appear in SMILES notation. Where a name gives a salt, the structure may show the parent alone.

NLRP3, sequence (Q96P20 whole entry): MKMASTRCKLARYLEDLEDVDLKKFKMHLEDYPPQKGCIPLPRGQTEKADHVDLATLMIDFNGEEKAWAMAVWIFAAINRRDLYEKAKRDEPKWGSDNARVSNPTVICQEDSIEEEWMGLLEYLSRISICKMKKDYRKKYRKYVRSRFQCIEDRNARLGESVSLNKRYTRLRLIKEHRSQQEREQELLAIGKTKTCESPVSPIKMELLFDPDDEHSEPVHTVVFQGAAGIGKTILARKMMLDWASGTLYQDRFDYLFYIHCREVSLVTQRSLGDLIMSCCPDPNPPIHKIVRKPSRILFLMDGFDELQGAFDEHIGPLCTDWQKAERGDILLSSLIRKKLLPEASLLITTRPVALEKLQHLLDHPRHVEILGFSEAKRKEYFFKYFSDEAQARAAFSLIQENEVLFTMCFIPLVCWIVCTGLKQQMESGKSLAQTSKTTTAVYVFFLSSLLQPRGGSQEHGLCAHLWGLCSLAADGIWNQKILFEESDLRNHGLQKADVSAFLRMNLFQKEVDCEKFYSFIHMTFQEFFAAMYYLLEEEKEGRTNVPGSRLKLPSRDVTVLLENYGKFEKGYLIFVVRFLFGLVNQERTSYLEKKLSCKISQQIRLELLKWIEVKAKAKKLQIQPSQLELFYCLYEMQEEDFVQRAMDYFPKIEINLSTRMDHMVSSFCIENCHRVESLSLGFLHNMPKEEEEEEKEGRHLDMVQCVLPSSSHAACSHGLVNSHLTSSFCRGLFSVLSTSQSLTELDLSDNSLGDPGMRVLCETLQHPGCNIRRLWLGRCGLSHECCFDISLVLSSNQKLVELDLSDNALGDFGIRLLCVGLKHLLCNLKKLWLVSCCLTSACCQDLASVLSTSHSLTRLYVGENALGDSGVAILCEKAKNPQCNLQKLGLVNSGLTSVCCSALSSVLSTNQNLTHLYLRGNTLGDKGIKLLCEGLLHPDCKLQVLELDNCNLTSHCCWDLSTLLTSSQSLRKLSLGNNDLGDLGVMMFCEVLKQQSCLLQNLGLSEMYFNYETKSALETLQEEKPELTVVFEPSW

The assay addresses NLRP3 (Homo sapiens, UniProt Q96P20). The assay can be described thus: THP-1 cells pyroptosis assay (LPS + nigericin, resazurin readout; THP IC50). The format is cell-based. Also on record: Seed THP-1 cells (25,000 cells/well) containing 1.0 μg/ml LPS in 40 μl of RPMI medium; host or cells: THP-1 cells. The protocol:
THP-1 cells (ATCC #TIB-202) were grown in RPMI containing L-glutamine (Gibco #11835) supplemented with 1 mM sodium pyruvate (Sigma #S8636) and penicillin (100 units/ml)/streptomycin (0.1 mg/ml) (Sigma #P4333) in 10% Fetal Bovine Serum (FBS) (Sigma #F0804). The cells were routinely passaged and grown to confluency (˜10^6 cells/ml). On the day of the experiment, THP-1 cells were harvested and resuspended into RPMI medium (without FBS). The cells were then counted and viability (>90%) checked by Trypan blue (Sigma #T8154). Appropriate dilutions were made to give a concentration of 625,000 cells/ml. To this diluted cell solution was added LPS (Sigma #L4524) to give a 1 μg/ml Final Assay Concentration (FAC). 40 μl of the final preparation was aliquoted into each well of a 96-well plate. The plate thus prepared was used for compound screening.
The following method step-by-step assay was followed for compound screening. • 1. Seed THP-1 cells (25,000 cells/well) containing 1.0 μg/ml LPS in 40 μl of RPMI medium (without FBS) in 96-well, black walled, clear bottom cell culture plates coated with poly-D-lysine (VWR #734-0317) • 2. Add 5 μcompound (8 points half-log dilution, with 10 μM top dose) or vehicle (DMSO 0.1% FAC) to the appropriate wells • 3. Incubate for 3 hrs at 37° C. and 5% CO2 • 4. Add 5 μnigericin (Sigma #N7143) (FAC 5 μM) to all wells • 5. Incubate for 1 hr at 37° C. and 5% CO2 • 6. At the end of the incubation period, spin plates at 300×g for 3 mins and remove supernatant • 7. Then add 50 μl of resazurin (Sigma #R7017) (FAC 100 μM resazurin in RPMI medium without FBS) and incubate plates for a further 1-2 hrs at 37° C. and 5% CO2 • 8. Plates were read in an Envision reader at Ex 560 nm and Em 590 nm • 9. IC50 data is fitted to a non-linear regression equation (log inhibitor vs response-variable slope 4-parameters)
(In general: Alamar Blue is a resazurin reagent that responds to reducing activity.)
Broadly, the IC50 is the concentration that gives 50% inhibition. Take `CC(C)c1cc(F)cc(-c2ccnc(C#N)c2)c1NC(=O)NS(=O)(=O)C1CN(C(C)C)C1` [Example 74, N-((2-(2-Cyanopyridin-4-yl)-4-fluoro-6-isopropylphenyl)carbamoyl)-1-isopropylazetidine-3-sulfonamide]: the IC50 was ≤ 10 µM.

Turning to `CC(c1ccccc1)S(=O)(=O)NC(=O)Nc1c(-c2ccncc2)cc(F)c2c1CCC2` (stereo not drawn) [Example 142, N-((7-Fluoro-5-(pyridin-4-yl)-2,3-dihydro-1H-inden-4-yl)carbamoyl)-1-phenylethanesulfonamide], the 50% inhibitory concentration (IC50) was ≤ 5 µM.

As to `COCCCS(=O)(=O)NC(=O)Nc1c(-c2ccnc(OC)c2)cc(F)cc1C(C)C` [Example 155, N-((4-Fluoro-2-isopropyl-6-(2-methoxypyridin-4-yl)phenyl)carbamoyl)-3-methoxypropane-1-sulfonamide], the IC50 was ≤ 0.5 µM.

Regarding `COCCCS(=O)(=O)NC(=O)Nc1c(-c2ccnc(C#N)c2)cc(F)cc1C(C)C` [Example 154, N-((2-(2-Cyanopyridin-4-yl)-4-fluoro-6-isopropylphenyl)carbamoyl)-3-methoxypropane-1-sulfonamide], the IC50 was ≤ 5 µM.

Regarding `COc1cc(-c2cc(F)cc(C(C)C)c2NC(=O)NS(=O)(=O)c2ccn(C(C)C)n2)cc(C)n1` [Example 26, N-((4-Fluoro-2-iso-propyl-6-(2-methoxy-6-methylpyridin-4-yl)phenyl)carbamoyl)-1-iso-propyl-1H-pyrazole-3-sulfonamide], the half-inhibitory concentration (IC50) was ≤ 5 µM.

As to `CC(C)c1cc(F)cc(-c2cnn(C)c2)c1NC(=O)NS(=O)(=O)c1cn(C(C)C)cn1` [Example 31, N-((4-Fluoro-2-iso-propyl-6-(1-methyl-1H-pyrazol-4-yl)phenyl)carbamoyl)-1-iso-propyl-1H-imidazole-4-sulfonamide], the IC50 is ≤ 5 µM.

For `O=C(Nc1c(-c2ccncc2)cc(F)c2c1CCC2)NS(=O)(=O)c1nccnc1C(F)F` [Example 113, 3-(Difluoromethyl)-N-((7-fluoro-5-(pyridin-4-yl)-2,3-dihydro-1H-inden-4-yl)carbamoyl)pyrazine-2-sulfonamide], the IC50 was ≤ 5 µM.

`CC(C)c1cc(F)cc(-c2ccnc(C#N)c2)c1NC(=O)NS(=O)(=O)C(C)c1ccccc1` (stereo not drawn) [Example 139, N-((2-(2-Cyanopyridin-4-yl)-4-fluoro-6-isopropylphenyl)carbamoyl)-1-phenylethanesulfonamide]: the concentration for half-maximal inhibition (IC50) was ≤ 5 µM.

In the case of `COc1cc(-c2cc(F)cc(C(C)C)c2NC(=O)NS(=O)(=O)c2ccc(=O)n(C(C)C)c2)ccn1` [Example 90, N-((4-Fluoro-2-isopropyl-6-(2-methoxypyridin-4-yl)phenyl)carbamoyl)-1-isopropyl-6-oxo-1,6-dihydropyridine-3-sulfonamide], the IC50 is ≤ 0.5 µM.

Regarding `COc1cc(-c2ccc3c(c2NC(=O)NS(=O)(=O)c2ccc(C(=O)N(C)C)cc2)CCO3)ccn1` [Example 309, 4-(N-((5-(2-Methoxypyridyl-4-yl)-2,3-dihydrobenzofuran-4-yl)carbamoyl)sulfamoyl)-N,N-dimethylbenzamide, sodium salt], the concentration for half-maximal inhibition (IC50) is ≤ 5 µM.

Regarding `CCN(CCCS(=O)(=O)NC(=O)Nc1c(-c2ccnc(OC)c2)ccc2c1CCC2)Cc1ccccc1` [Example 152, 3-(Benzyl(ethyl)amino)-N-((5-(2-methoxypyridin-4-yl)-2,3-dihydro-1H-inden-4-yl)carbamoyl)propane-1-sulfonamide], the IC50 is ≤ 0.5 µM.

Regarding `COc1cc(-c2ccc3ccncc3c2NC(=O)NS(=O)(=O)c2ccn(C(C)C)n2)ccn1` [Example 217, 1-Isopropyl-N-((7-(2-methoxypyridin-4-yl)isoquinolin-8-yl)carbamoyl)-1H-pyrazole-3-sulfonamide], the half-maximal inhibitory concentration (IC50) was ≤ 10 µM.

For `Cc1cnccc1-c1cc(F)cc(C(C)C)c1NC(=O)NS(=O)(=O)c1ccn(C(C)C)n1` [Example 22, N-((4-Fluoro-2-iso-propyl-6-(3-methylpyridin-4-yl)phenyl)carbamoyl)-1-iso-propyl-1H-pyrazole-3-sulfonamide], the IC50 was ≤ 1 µM.

For the compound `Cc1cc(-c2cc(F)cc(C(C)C)c2NC(=O)NS(=O)(=O)c2ccn(C(C)C)n2)ccn1` [Example 13, N-((4-Fluoro-2-iso-propyl-6-(2-methylpyridin-4-yl)phenyl)carbamoyl)-1-iso-propyl-1H-pyrazole-3-sulfonamide, partial ammonium salt], the 50% inhibitory concentration (IC50) was ≤ 0.5 µM.

Take `CC(C)c1cc(F)cc(-c2cncc(Cl)c2)c1NC(=O)NS(=O)(=O)c1ccn(C(C)C)n1` [Example 16, N-((2-(5-Chloropyridin-3-yl)-4-fluoro-6-iso-propylphenyl)carbamoyl)-1-iso-propyl-1H-pyrazole-3-sulfonamide, partial ammonium salt]: the IC50 was ≤ 5 µM.

As to `CCN(CCCS(=O)(=O)NC(=O)Nc1c(-c2ccnc(OC)c2)cc(F)cc1C(C)C)Cc1ccccc1` [Example 150, 3-(Benzyl(ethyl)amino)-N-((4-fluoro-2-isopropyl-6-(2-methoxypyridin-4-yl)phenyl)carbamoyl)propane-1-sulfonamide], the 50% inhibitory concentration (IC50) is ≤ 0.5 µM.

On to `CCN(CCCS(=O)(=O)NC(=O)Nc1c(-c2ccnc(C#N)c2)cc(F)cc1C(C)C)Cc1ccccc1` [Example 151, 3-(Benzyl(ethyl)amino)-N-((2-(2-cyanopyridin-4-yl)-4-fluoro-6-isopropylphenyl)carbamoyl)propane-1-sulfonamide], for which the IC50 was ≤ 5 µM.

Consider `Cn1cc(-c2ccc3c(c2NC(=O)NS(=O)(=O)c2ccn(C4CC4)n2)CCC3)ccc1=O` [Example 268, 1-Cyclopropyl-N-((5-(1-methyl-6-oxo-1,6-dihydropyridin-3-yl)-2,3-dihydro-1H-inden-4-yl)carbamoyl)-1H-pyrazole-3-sulfonamide], for which the IC50 is ≤ 5 µM.

Regarding `CC(C)c1cc(F)cc(-c2ccnc(C#N)c2)c1NC(=O)NS(=O)(=O)c1ccc(=O)n(C(C)C)c1` [Example 89, N-((2-(2-cyanopyridin-4-yl)-4-fluoro-6-isopropylphenyl)carbamoyl)-1-isopropyl-6-oxo-1,6-dihydropyridine-3-sulfonamide], the concentration for half-maximal inhibition (IC50) was ≤ 0.5 µM.

Regarding `CCN1CCC(S(=O)(=O)NC(=O)Nc2c(-c3ccnc(C#N)c3)ccc3c2CCC3)CC1` [Example 99, N-((5-(2-Cyanopyridin-4-yl)-2,3-dihydro-1H-inden-4-yl)carbamoyl)-1-ethylpiperidine-4-sulfonamide, potassium salt], the IC50 was ≤ 10 µM.

Regarding `CC(=O)Nc1cc(-c2ccc3c(c2NC(=O)NS(=O)(=O)c2ccn(C(C)C)n2)CCC3)ccn1` [Example 297, N-(4-(4-(3-((1-Isopropyl-1H-pyrazol-3-yl)sulfonyl)ureido)-2,3-dihydro-1H-inden-5-yl)pyridin-2-yl)acetamide, sodium salt], the IC50 is ≤ 1 µM.

`COc1cc(-c2cc(F)cc(C(C)C)c2NC(=O)NS(=O)(=O)c2nc(C)cc(C)n2)ccn1` [Example 115, N-((4-Fluoro-2-isopropyl-6-(2-methoxypyridin-4-yl)phenyl)carbamoyl)-4,6-dimethylpyrimidine-2-sulfonamide]: the IC50 was ≤ 0.5 µM.

As for `CC(C)c1cc(F)cc(-c2cncnc2)c1NC(=O)NS(=O)(=O)c1ccn(C(C)C)n1` [Example 18, N-((4-Fluoro-2-iso-propyl-6-(pyrimidin-5-yl)phenyl)carbamoyl)-1-iso-propyl-1H-pyrazole-3-sulfonamide], the IC50 was ≤ 1 µM.

Take `CC(C)n1ccc(S(=O)(=O)NC(=O)Nc2c(-c3ccnc(OC4CCN(C)C4)c3)ccc3c2CCC3)n1` (stereo not drawn) [Example 301, 1-Isopropyl-N-((5-(2-((1-methylpyrrolidin-3-yl)oxy)pyridin-4-yl)-2,3-dihydro-1H-inden-4-yl)carbamoyl)-1H-pyrazole-3-sulfonamide, sodium salt]: the IC50 is ≤ 1 µM.

On to `COc1cc(-c2cc(F)cc(C(C)C)c2NC(=O)NS(=O)(=O)CC(C)C)ccn1` [Example 132, N-((4-Fluoro-2-isopropyl-6-(2-methoxypyridin-4-yl)phenyl)carbamoyl)-2-methylpropane-1-sulfonamide], for which the IC50 was ≤ 1 µM.

Regarding `COc1cc(-c2ccc3c(c2NC(=O)NS(=O)(=O)c2ccn(C(C)C)n2)CCC3)cc(C)n1` [Example 238, 1-Isopropyl-N-((5-(2-methoxy-6-methylpyridin-4-yl)-2,3-dihydro-1H-inden-4-yl)carbamoyl)-1H-pyrazole-3-sulfonamide, sodium salt], the half-inhibitory concentration (IC50) was ≤ 5 µM.

On to `CC(C)CS(=O)(=O)NC(=O)Nc1c(-c2ccncc2)cc(F)c2c1CCC2` [Example 134, N-((7-Fluoro-5-(pyridin-4-yl)-2,3-dihydro-1H-inden-4-yl)carbamoyl)-2-methylpropane-1-sulfonamide], for which the IC50 was ≤ 1 µM.
